Source: patent publication US5532231A, “Antibacterial agent” (priority 1994, dated 1996)
“Also recorded” adds a separate entry of the source.

Key:
E. coli ESS Kan^r = experiment: Sensitivity to combined exposure to light and air (remaining activity by paper disc bioassay); type: physicochemical, Escherichia coli
Experimental: Antibiotic activity against E. coli ESS Kan^r was determined by the paper disc filter assay (Leo et al., 1945). Unknown quantities of antibiotic TA or Focusin, dissolved in ethanol, saline or NB were applied to paper disc filters (6 mm diameter; Schleicher and Schull). After allowing the ethanol to evaporate in the hood for about 15 mins, the dry filters were placed on nutrient broth plates which had been overlaid with an overnight culture of E. coli ESS Kan^r as described above.
The diameter of the zone of inhibition was recorded after 18 hours in incubation at 37° C. The concentration of the antibacterial agents were determined from a standard inhibition curve prepared with known quantities of TA and Focusin.
100 ng of TA and Focusin dissolved in ethanol were applied to paper filters and allowed to dry in a hood for 15 mins. The filters were then exposed to light from a fluorescent lamp in the hood; the distance from the lamp to the filters was approximately 40 cm. The controls were placed in the dark under a plastic box within the hood.
After exposure of the filters to the light for varying periods of time, the remaining activity of the agents was measured by the paper disc bioassay and the results are shown in the following Table 1: […]

E. coli ESS = experiment: Bactericidal effect when bound to mouse tissues; type: cell-based, Escherichia coli; details: 4 μg TA or 20 μg Focusin, 5 h
Experimental: Two mice were sacrificed by exposure to ether. The bladder, eyes, intestines, lungs, heart, teeth, liver, spleen and kidneys were removed by dissection. Each experimental set consisted of three test tubes. A piece of each tissue type was placed in each of the three test tubes. The amount of tissue per tube were as follows: bladder 1/3, eye 1/2, intestine 1 cm, lung 1/2, heart 1/3, fang tooth 1/2, liver 1/3, spleen 1/3 and kidney 1/2. One test tube contained a control tissue which was treated only with the solvent used for dissolving the antibacterial agent, usually 50% ethanol. The second and third test tubes contained tissues were treated with 4 μg TA or 20 μg Focusin, respectively.
Following application of the antibacterial agent or the control solution, the tissues were allowed to dry in a hood for 30 mins., and then placed in the test tubes.
One milliliter of sterile saline was then added to each test tube and the tubes were then incubated with shaking (50 rpm) at 37° C. for one hour. The amount of antibacterial agent that was released to the saline was measured following chloroform extraction by the disc filter assay.
The tissues were then transferred to exponentially growing cultures of E. coli ESS in NB at a concentration of 10^5 cells/ml. Incubation was at 37° C. and continued for 5 hours, following which the number of viable cells was checked.

[1] = type: physicochemical
Experimental: Focusin and TA at concentrations of 3 mg/ml were diluted either in ethanol or in saline containing 1% ethanol to yield a final concentration in each case of 30 μg/ml. The solutions were mixed at 37° C. for one hour under shaking, and then were centrifuged at 5000 g for 10 minutes. Several samples were taken from the supernatants of the tubes and were applied on disc filters in order to determine the concentration of the antibacterial agents in the saline and ethanol solutions, by the paper disc bioassay method.

CCCC1OC(=O)C(C)CC(C)CCCCC(=O)CCCC(CC)CCCC(COC)CCC(O)C(O)CC(O)CNC1=O (stereo not drawn) [Focusin]
activity after exposure to light and air (E. coli ESS Kan^r; 0 hours): 100%
activity after exposure to light and air (E. coli ESS Kan^r; 1 hour): 100%
activity after exposure to light and air (E. coli ESS Kan^r; 4 hours): 100%
activity after exposure to light and air (E. coli ESS Kan^r; 6 hours): 100%
activity after exposure to light and air (E. coli ESS Kan^r; 8 hours): 100%
activity after exposure to light and air (E. coli ESS Kan^r; 20 hours): 100%
stability to exposure to light and air (in words) (E. coli ESS Kan^r; combined light and air, up to 20 hours): much more stable to exposure to light and air than the TA antibiotic; also recorded: completely resistant to breakdown
Inhibition % by the treated tissue (E. coli ESS; bladder): 100%
Inhibition % by the treated tissue (E. coli ESS; heart): 90%
Inhibition % by the treated tissue (E. coli ESS; intestine): 100%
Inhibition % by the treated tissue (E. coli ESS; kidney): 100%
Inhibition % by the treated tissue (E. coli ESS; liver): 94%
Inhibition % by the treated tissue (E. coli ESS; lungs): 100%
Inhibition % by the treated tissue (E. coli ESS; spleen): 100%
Inhibition % by the treated tissue (E. coli ESS; teeth): 100%
aqueous solubility compared with TA (in words) [1]: higher aqueous solubility than TA
solubility in ethanol [1]: completely soluble
solubility in saline ([1]; saline with 1% ethanol, 1 h): about 7 μg/ml
